# Experimental data: patent publication US20070231296A1, “Method of Combating Fruit Flies” (priority 2004, published 2007)
# Legend:
# fruit flies = assay: Contact of male fruit flies with AMULET parapheromone stations and transfer to females; assay type: in vivo; conditions: AMULET station, 20 mg fipronil per station; depending on length of contact
# Procedure: AMULET™ parapheromone stations use fipronil at a very low concentration (20 mg per station) that has no repulsion to male flies landing on the device allowing them to freely imbibe from its surface and walk over it for long periods. Female fruit flies of the same species are not attracted by the pheromone and do no show any interest in the stations.
# Through this contact they contaminate the integument of the female that subsequently dies the following day.
# Bactrocera tryoni = assay: Large field cage trial with a paper mâché block containing fipronil plus Cue-lure; assay type: in vivo; conditions: field cage 4×4×2.5 m, single paper mâché block with 20 milligrams of fipronil plus Cue-lure per cage
# Description: In a large field cage (4×4×2.5 m) trial, a single block of paper mâché containing 20 milligrams of fipronil plus Cue-lure was used per cage.
# After 2 days of exposure, over 90% mortality of male and female Bactrocera tryoni was achieved, after 3 days even over 95% mortality of males and females.
# Dead females were collected from the floor of the cage and dissected.
structure (smiles),measurement,setting,value
N#Cc1nn(-c2c(Cl)cc(C(F)(F)F)cc2Cl)c(N)c1[S+]([O-])C(F)(F)F (stereo not drawn) [fipronil],time after contact until male fruit flies die,fruit flies,3 to 48 h
same,mortality of male and female Bactrocera tryoni,Bactrocera tryoni; after 2 days of exposure,over 90%
same,mortality of males and females,Bactrocera tryoni; after 3 days,over 95%
